Values joined by “and” are separate entries in the source; they are usually repeats but may differ in a detail not shown here. Equal values may be shown once. Bridges are numbered along the chain shown (N, C = ends). Where no end group is shown, it is not given here. [ ]: non-standard residue; d: D form. Lys(N3) = [N-]=[N+]=NCCCC[C@H](N)C(=O)O
How the values were obtained:
[1] = tested on: FMC63^scFv; assay: FMC63 scFv binding to K562 cells labeled with amph-mimotopes (Fig 3J); details: read-out: Kd^scFv (apparent); K562 labeled with 500 nM amph-mimotope, fluorescent FMC63^scFv, flow cytometry
Target sequence in this assay (as listed by the source): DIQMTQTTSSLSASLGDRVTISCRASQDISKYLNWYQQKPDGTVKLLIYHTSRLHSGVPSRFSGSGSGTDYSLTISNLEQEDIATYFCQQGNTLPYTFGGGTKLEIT
Target sequence in this assay (as listed by the source): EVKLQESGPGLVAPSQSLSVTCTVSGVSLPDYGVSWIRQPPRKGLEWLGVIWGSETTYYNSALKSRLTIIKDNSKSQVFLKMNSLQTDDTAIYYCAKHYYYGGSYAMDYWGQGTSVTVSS

[2] = tested on: CD19 CAR-T cells; assay: IFN-γ ELISA, human CD19 CAR-T co-cultured with amph-mimotope-labeled K562 cells (Fig 2H); assay type: cell-based; details: 6 hr
[3] = tested on: EGFRvIII-CAR-T cells; assay: IFN-γ ELISA, control EGFRvIII-CAR-T co-cultured with amph-labeled K562 cells (Fig 2I); assay type: cell-based
[4] = tested on: FMC63-mCAR-T cells; assay: CTV dilution of FMC63-mCAR-T cells in LNs after amph-mimotope vaccination (Fig 5D); assay type: in vivo, C57BL/6 mice; details: 10 nmol amph-peptide + 25μg CDG, 48 hours after vaccination, n=3
[5] = tested on: FMC63^scFv; assay: Retention of prebound biotin-FMC63 scFv on yeast clones under competition with FMC63 IgG (Fig 3I); assay type: binding; details: pre-stained with 50nM Biotin-FMC63^scFv, then 1μM FMC63^IgG
[6] = tested on: FMC63^scFv binding to CD19^+ NALM6 cells; assay: FMC63 scFv staining of NALM6 cells after pre-incubation with mimotope (Fig 4E); set-up: species or system human; details: scFv pre-blocked with mimotope
[7] = tested on: FMC63^IgG binding to CD19^+ NALM6 cells; assay: FMC63 IgG staining of NALM6 cells in the presence of mimotope (Fig 4E); set-up: species or system human
[8] = tested on: CD19-CAR Jurkat T cells; assay: CD69 expression on mimotope-pre-incubated CD19-CAR Jurkat T cells co-cultured with NALM6 (Fig 4F); assay type: cell-based, human; details: 1:1 E:T, 16 hours
[9] = tested on: primary mouse B cells (mouse CD19); assay: FMC63 IgG binding to primary mouse B cells by flow cytometry (EDF7D)
[10] = tested on: FMC63-mCAR-T cells; assay: IFN-γ ELISA, FMC63-mCAR-T co-cultured with amph-mimotope-labeled K562 cells (Fig 5B); assay type: cell-based, mouse
[11] = tested on: FMC63^IgG; assay: ELISA of FMC63 IgG binding to plate-bound synthetic mimotopes (Fig 2F, 3F); details: peptide pre-treated with DTT
[12] = tested on: FMC63^IgG; assay: Flow cytometry of FMC63 IgG binding to mimotope yeast clones (Fig 2E, 3B, 3D, 3E)
Target sequence in this assay (as listed by the source): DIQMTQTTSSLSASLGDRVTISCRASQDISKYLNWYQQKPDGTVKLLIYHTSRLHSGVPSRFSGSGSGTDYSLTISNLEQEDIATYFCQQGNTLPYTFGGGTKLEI

[13] = Clinical data, pediatric B-ALL: CAR-T expansion by qPCR and B cell aplasia (Fig 1A-D); assay type: in vivo, human; details: for probability of continued B-cell aplasia: at 6 months
[14] = Clinical data, adult B-ALL: peak CAR-T expansion by qPCR (EDF2A); assay type: in vivo, human; details: adult relapsed/refractory ALL
[15] = Clinical data, adult B-cell lymphoma: peak CAR-T expansion by qPCR (EDF2B); assay type: in vivo, human; details: relapsed/refractory B-NHL

For “amph-P1: P1 with N-terminal azide conjugated to DSPE-PEG2k-DBCO ({DSPE‑PEG2k‑DBCO}-[Lys(N3)]RHCPWNCSLL; not fully specified; cysteine pairing not given here)”, the Kd [1] was > 1000 nM, the “IFN-γ by ELISA” value ([2]; CD19^− K562 labeled with 100 nM amph-P1, CD19 CAR-T 5:1 E:T, triplicate samples) was 79.6185 and 80.063 and 79.9889 and the “IFN-γ secretion from CD19 CAR-T cells (in words)” value ([2]; K562 labeled with 100 nM amph-P1, 5:1 E:T) was “effectively triggered IFN-γ secretion from CD19 CAR-T cells but to a much lesser extent than NALM6 cells”. For the same substance, the “stimulation of control EGFRvIII CAR-T cells (in words)” value ([3]; K562 labeled with 100 nM amph-ligand, 5:1 E:T, 6 hours, IFN-γ ELISA) was “failed to stimulate”, the “IFN-γ secretion, EGFRvIII-CAR-T with amph-labelled K562 (Fig 2I)” value (from here on “IFN-γ secretion, EGFRvIII-CAR-T”) ([3]; replicate 1) was 128 and the “IFN-γ secretion, EGFRvIII-CAR-T” value ([3]; replicate 2) was 153. For the same substance, the “IFN-γ secretion, EGFRvIII-CAR-T” value ([3]; replicate 3) was 104 and the “CAR-T cell proliferation (CTV dilution) in LNs (in words)” value [4] was “no CAR-T cell proliferation”.
For “PRKHSGRICPWNCKELDNPPFIFGNR (disulfide) [F12-A1]”, the “time FMC63^scFv remained bound on yeast surface in the presence of excess soluble FMC63^IgG” value [5] was “over 24 hours”, the “mimotope concentration at which FMC63^scFv binding to NALM6 cells is compromised / abolished” value [6] was “greater than 1 μM” and the “mimotope concentration at which FMC63^IgG binding to CD19 is abolished” value [7] was > 10 µM. For the same substance, the “CD69 induction on FMC63 CAR Jurkat cells stimulated with NALM6 after pre-blocking with mimotope” value [8] was “not affected”.
With “FMC63 IgG: recombinant FMC63 (anti-human CD19) expressed as a full-length IgG” the “binding to WT B cells expressing mouse CD19 (in words)” value [9] was “minimal binding”.
In the case of “amph-mimotopeF12 ({DSPE‑PEG2k‑DBCO}-[Lys(N3)]RICPWNCKEL; disulfide 4-8 (inferred))”, the “IFN-γ secretion, FMC63-mCAR-T with amph-labelled K562 (Fig 5B)” value (from here on “IFN-γ secretion, FMC63-mCAR-T”) ([10]; replicate 1) is reported as 739.091, the “IFN-γ secretion, FMC63-mCAR-T” value ([10]; replicate 2) is reported as 671.636 and the “IFN-γ secretion, FMC63-mCAR-T” value ([10]; replicate 3) is reported as 771.636.
For RHCPWNCSLL (disulfide) [P1], the “FMC63^IgG binding to DTT-treated peptide” value [11] was “completely ablated”, the “binding of yeast clone at 20 nM biotinylated FMC63^IgG” value ([12]; flow cytometry) was “no detectable binding” and the “FMC63^IgG binding to yeast clone under mild reductive conditions” value ([12]; yeast treated with 0.1mM, 1mM DTT, 500 nM biotin-FMC63^IgG) was “eliminated FMC63^IgG binding”.
For tisagenlecleucel, the “median time to peak CAR-T expansion” value ([13]; after infusion, both cohorts (high ≥40%, n=40; low <40%, n=90), qPCR) was 10 days, the “probability of continued B-cell aplasia” value ([13]; high tumor burden patients, 95% CI 55–95) was 72% and the “probability of continued B-cell aplasia” value ([13]; low tumor burden patients, 95% CI 57–78) was 67%. For the same substance, the peak of expansion ([14]; high tumor burden (n=23)) was 77,109 CAR19 copies/μg of DNA, the peak of expansion ([14]; low tumor burden (n=6)) was 25,064 CAR19 copies/μg of DNA and the CAR-T19 expansion ([15]; high disease burden (n=7)) was 35,857 CAR19 copies/μg of DNA. The CAR-T19 expansion ([15]; low tumor burden (n=30)) was 18,718 CAR19 copies/μg of DNA.
With “amph-F12: amphiphile (DSPE-PEG2k) conjugate of F12 ({DSPE‑PEG2k‑DBCO-azido lysine}-RICPWNCKEL; disulfide 3-7 (inferred))” the “CAR-T cell proliferation (CTV dilution) in LNs (in words)” value [4] was “limited proliferation”.
